Key:
[1] = system: melanocytes and keratinocytes of tissue samples taken from the stomach tissue of a person; experiment: Ex vivo study on the promotion of melanogenesis: histological analysis, melanin visualisation; assay type: cell-based, human; conditions: for activity of the melanocytes / melanin content in basal keratinocytes / melanin content in suprabasal keratinocytes / melanin in basal keratinocytes: treatment for 10 days
Description: (§1) The tissue samples having a diameter of 10 mm are taken from the stomach tissue of a person and stored in BEM medium at 37° C. in a moist atmosphere having a CO2 content of 5%. The tissue samples are employed in accordance with the following test plan:
(§2) 30 μl of test solution are placed on a filter paper and immediately laid on the tissue sample.
(§3) The irradiations are carried out daily before treatment of the tissue samples with test solutions. An RMX 3W Vilbert Lourmat instrument is used. The UV dose is 1.04 J/cm2 comprising 6/8% of UVB.
On the first day (D0), 3 untreated tissue samples are halved, and in each case one half is fixed in buffered formalin solution. The respective other halves are frozen at −80° C.
After fixing for 24 hours in buffered formalin solution, the samples are dehydrated in a Leica TP1010 automatic dryer and impregnated with paraffin. After embedding with the aid of a Leica EG1160 station, 5 μm thin cross sections are produced from the samples using a Leica RM 2125 Minot-type microtome.
The cross sections are mounted on Superfrost Plus specimen slides made from silanised glass. The light-microscopy analysis is carried out by means of a Leica Orthoplan microscope with 25-times magnification in order to assess the general morphology or 40-times magnification in order to visualise the melanin.
The melanin visualisation is carried out after impregnation of the paraffinised cross-sections with silver in accordance with Masson in the Fontana variant.

[2] = system: tissue samples taken from the stomach tissue of a person; experiment: Ex vivo study on the promotion of melanogenesis: chromatometry of tissue samples; assay type: cell-based, human; conditions: for % L: D10 versus D0
Description: as §1, §2, §3
The colour coordinates of the tissue samples are determined by means of a Minolta CM 2600d chromatometer.

[3] = with UV irradiation, after 10 days
[4] = without UV irradiation, after 10 days

Structure (SMILES) | activity of the melanocytes ([1]; with UV irradiation) | melanin content in basal keratinocytes ([1]; with UV irradiation) | melanin content in suprabasal keratinocytes ([1]; with UV irradiation) | activity of the melanocytes ([1]; without UV irradiation) | melanin content in suprabasal keratinocytes ([1]; without UV irradiation) | melanin in basal keratinocytes ([1]; without UV irradiation) | tanning activity in the ex vivo experiment [2] | activity indicated by chromatometric analysis ([2]; with UV irradiation) | L ([2]; with UV irradiation, D0) | L ([2]; with UV irradiation, D10) | % L ([2]; with UV irradiation) [%] | change in the L parameter (in words) [2, 3] | activity indicated by chromatometric analysis ([2]; without UV irradiation) | L ([2]; without UV irradiation, D0) | L ([2]; without UV irradiation, D10) | % L ([2]; without UV irradiation) [%] | increase in the L parameter [2, 4] [%] | increase of the area of the basal layer occupied by melanin ([1]; without UV irradiation, compared with the untreated control) [%] | light/dark parameter L drops by [2, 3] [%] | decrease in the L parameter [2, 4] [%]
CC(=O)c1cc(O)c2c(=O)cc(C)oc2c1 [5-hydroxy-7-acetyl-2-methylchromen-4-one] | low activity | moderate | low | very low activity | low | moderate | no tanning activity | skin-lightening activity | 63.66 | 64.87 | 1.9 | increase in the L parameter | skin-lightening activity | 62.19 | 63.98 | 2.9 | 2.9 | – | – | –
CCCCCCCCCCCCCCCC(=O)Oc1cc(O)c2c(=O)cc(C)oc2c1 [compound Ia, 5-hydroxy-2-methyl-4-oxo-4H-chromen-7-yl hexadecanoate] | high degree of activity | high | moderate | very high activity | moderate | readily detectable | – | clear pro-pigmenting activity | 64.07 | 61.52 | −4 | – | pro-pigmenting activity | 64.53 | 61.24 | −5.1 | – | 43 | 4.0 | 5.1
COc1cc(O)c2c(=O)cc(C)oc2c1 [5-hydroxy-7-methoxy-2-methylchromen-4-one] | very low activity | moderate | low | very low activity | low | moderate | – | skin-lightening activity | 63.63 | 64.60 | 1.5 | increase in the L parameter | skin-lightening activity | 61.50 | 64.64 | 5.1 | – | – | – | –
